Measured values reported in patent publication US10759796B2, “CXCR4 inhibitors and uses thereof” (X4 Pharmaceuticals, Inc., priority 2016, dated 2020).

Experiments:
in vitro = details: human, Caco-2, pH 7.4
Procedure: Example 28: Caco-2 Permeability Assay
The goal of this assay was to evaluate the intestinal absorption potential of drug candidates using Caco-2 cell lines.
1. Prewarm Prewarm HBSS Buffer in 37° C. water bath
2. Sonicate Take compounds from −20° C., sonicate for a few minutes (no less than 1 minute)
HBSS buffer with 0.3% DMSO and 5 μM LY: add 150 μL DMSO and 50 μL LY (5 mM) into 50 ml HBSS buffer (pH 7.4).
HBSS buffer with 0.1% DMSO and 5 μM LY: add 50 μL DMSO and 50 μL LY (5 mM) into 50 mL HBSS buffer (pH 7.4).
HBSS buffer with 0.3% DMSO: add 150 μL DMSO into 50 ml HBSS buffer (pH 7.4).
HBSS buffer with 0.1% DMSO: add 50 μL DMSO into 50 ml HBSS buffer (pH 7.4).
Receiver Solution Buffer:
Prepare HBSS buffer with 0.4% DMSO: add 200 μL DMSO into 50 ml HBSS buffer (pH 7.4).
Prepare HBSS buffer with 0.4% DMSO and 5 μM LY: add 200 μL DMSO and 50 μL LY (5 mM) into 50 ml HBSS buffer (pH 7.4).
4. Measure TEER Take cell culture plate out of incubator, wash the cell monolayers with HBSS buffer, and then measure TEER values at Rm temperature. 5. Centrifuge Centrifuge the compound solution (from step 3) at 4000 rpm for 5 min before loading to donor chambers. 6. Dosing Add solution based on the volumes listed in the following table (make sure to take extra 100 μL of donor sample for TO as Backup).
7. Apical LYT0 Samples To determine LY concentration in the apical chember, take 100 μL sample from apical chambers into an opaque plate for LYT0. 8. Prewarm Prewarm apical and basolateral plates at 37° C. for about 5 min, then begin transport by placing the apical plate onto basolateral plate. 9. Incubation Keep the plates in incubator at 37° C. for 90 min. 10. Standard Curve Preparation
For 300 μM compound solution, add 6 μL of compound stock solution into 192 μL of MeOH/H2O (1:1).
Prepare Working Solution in MeOH/H2O (1:1)
3 μL (20×)+57 μL of 0.4% DMSO HBSS+60 μL ACN with IS (Osalmid or Imipramine) - - - 120 μL (1×)
11. Transport Termination Separate the apical plate from the basolateral plate after 90-min incubation.
12. Measure LY Take 100 μL samples from basolateral plate to an opaque plate as LYT90.
13. Measure LY concentrations for LYT0 and LYT90 by Fluorometer (at excitation of 485 nm/emission of 535 nm).
Study details: Test concentration 10 μM
Test systems: Caco-2/HBSS solution
Incubation conditions: 0, 90 min at 37° C.
Sample size: Duplicates (n=2)
Bioanalytical method: LC-MS/MS
For Millicell-24 Cell Culture Plates: surface area of the membrane=0.7 cm^2, VA=0.8 mL (A-to-B) or 0.4 mL (B-to-A)
1. Papp values were calculated based on calculated concentrations.
The compound numbers correspond to the compound numbers in Table 1.

[1] = target: CXCR-4 transfected U87 cell line (U87.CXCR4) (Homo sapiens (Human), UniProt P61073); test: Intracellular CXCL-12-induced calcium mobilization assay (FLIPR); type: cell-based; details: U87.CXCR4 cells, CXCL-12 25-50 ng/mL; read-out: IC50 CXCL-12 Ca2+ flux U87.CXCR4+
Procedure: Example 28: REGA Screening Assay
Intracellular CXCL-12-Induced Calcium Mobilization Assay
Intracellular calcium mobilization induced by chemokines or chemokine-derived peptides were evaluated using a calcium responsive fluorescent probe and a FLIPR system. The CXCR-4 transfected U87 cell line (U87.CXCR4) cells were seeded in gelatine-coated black-wall 96-well plates at 20,000 cells per well and incubated for 12 hours. Cells were then loaded with the fluorescent calcium probe Fluo-2 acetoxymethyl at 4 μM final concentration in assay buffer (Hanks' balanced salt solution with 20 mM HEPES buffer and 0.2% bovine serum albumin, pH 7.4) for 45 min at 37° C. The intracellular calcium mobilization induced by the CXCL-12 (25-50 ng/mL) was then measured at 37° C. by monitoring the fluorescence as a function of time in all the wells simultaneously using a fluorometric imaging plate reader (FLIPR Tetra, Molecular Devices).

[2] = target: Jurkat cells expressing CXCR4 (Homo sapiens (Human), UniProt P61073); test: Chemokine (CXCL12-AF647) binding inhibition assay; details: CXCL12-AF647 25 ng/mL, read-out: IC50 CXCL-12 binding Jurkat
Procedure: Chemokine (CXCL12-AF647) Binding Inhibition Assay
Jurkat cells expressing CXCR4 were washed once with assay buffer (Hanks' balanced salt solution with 20 mM HEPES buffer and 0.2% bovine serum albumin, pH 7.4) and then incubated for 15 min at room temperature with the test compounds diluted in assay buffer at dose-dependent concentrations. Subsequently, CXCL12-AF647 (25 ng/mL) was added to the compound-incubated cells. The cells were incubated for 30 min at room temperature. Thereafter, the cells were washed twice in assay buffer, fixed in 1% paraformaldehyde in PBS, and analyzed on the FL4 channel of a FACSCalibur flow cytometer equipped with a 635-nm red diode laser (Becton Dickinson, San Jose, Calif., USA).
The percentages of inhibition of CXCL12-AF647 binding were calculated according to the formula: [1−((MFI−MFINC)/(MFIPC−MFINC))]×100 where MFI is the mean fluorescence intensity of the cells incubated with CXCL12-AF647 in the presence of the inhibitor, MFINC is the mean fluorescence intensity measured in the negative control (i.e., autofluorescence of unlabeled cells), and MFIPC is the mean fluorescence intensity of the positive control (i.e., cells exposed to CXCL12-AF647 alone).

Chain of Jurkat cells expressing CXCR4 (P61073 whole entry): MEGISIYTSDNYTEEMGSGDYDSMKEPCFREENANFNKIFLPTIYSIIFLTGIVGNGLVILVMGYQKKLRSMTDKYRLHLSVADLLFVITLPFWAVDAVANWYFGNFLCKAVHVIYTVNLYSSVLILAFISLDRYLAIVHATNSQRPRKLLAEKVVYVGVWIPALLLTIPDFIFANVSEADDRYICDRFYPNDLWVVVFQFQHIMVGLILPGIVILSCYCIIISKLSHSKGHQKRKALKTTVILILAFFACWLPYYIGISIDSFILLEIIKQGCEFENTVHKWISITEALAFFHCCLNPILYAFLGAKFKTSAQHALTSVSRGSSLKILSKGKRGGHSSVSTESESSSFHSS
Chain of CXCR-4 transfected U87 cell line (U87.CXCR4) (P61073 whole entry): as above

SMILES | Papp A→B at 90 min, 10 μM (in vitro) [×10⁻⁶ cm/s] | Papp B→A at 90 min, 10 μM (in vitro) [×10⁻⁶ cm/s] | efflux ratio at 90 min, 10 μM (in vitro) | IC50 [1] [nM] | IC50 [2] [nM] | Papp at 90 min, 10 μM (in vitro) [×10⁻⁶ cm/s]
CC(C)N1CCN(c2cccc3nc([C@H]4CCC[C@@H](c5ncccc5Cl)N4C)c(Cl)n23)CC1 [Compound I-123] | 0.1 to 10 | 0.1 to 10 | 0.1 to 10 | ≥ 1000 | 0.01 to 100 | 
CCN1[C@@H](c2nc3cccc(N4CCN(C(C)C)CC4)n3c2Br)CCC[C@H]1c1ncccc1C [Compound I-45] | 0.1 to 10 | 0.1 to 10 | 0.1 to 10 | ≥ 1000 | 100 to 1000 | 
Cc1cccnc1[C@@H]1CCC[C@H](c2cn3c(N4CCNCC4)cccc3n2)N1C [Compound I-4] | 0.1 to 10 | 10 to 30 | > 30 | 0.01 to 100 | 0.01 to 100 | 
CCN1CCN(c2cccc3nc([C@H]4CCC[C@@H](c5ncccc5C(C)C)N4C)cn23)CC1 [Compound I-111] | 0.1 to 10 | 0.1 to 10 | 0.1 to 10 | ≥ 1000 | 100 to 1000 | 
COc1cccnc1[C@@H]1CCC[C@H](c2nc3cccc(N4CCN(C)CC4)n3c2Cl)N1 [Compound I-173] | 0.1 to 10 | 10 to 30 | 0.1 to 10 | ≥ 1000 | 100 to 1000 | 
Cc1cccnc1[C@@H]1CCC[C@H](c2nc3cccc(N4CCN(C(C)C)CC4)n3c2Cl)N1C [Compound I-92] | 0.1 to 10 | 0.1 to 10 | 0.1 to 10 | 0.01 to 100 | 0.01 to 100 | 
Cc1cccnc1[C@H]1CCC[C@@H](c2nc3ccccn3c2CCCN(C)C)N1C (stereo in doubt) [Compound I-28] | 0.1 to 10 | 10 to 30 | > 30 | 100 to 1000 | 0.01 to 100 | 
Cc1cccnc1[C@@H]1CCC[C@H](c2cn3c(N4CCN(C5COC5)CC4)cccc3n2)N1C [Compound I-52] | 0.1 to 10 | > 30 | 10 to 30 | ≥ 1000 | 100 to 1000 | 
Cc1cccnc1[C@@H]1CCC[C@H](c2nc3cccc(N4CCN(C5CC5)CC4)n3c2CO)N1C [Compound I-112] | 10 to 30 | 10 to 30 | 0.1 to 10 | 100 to 1000 | 0.01 to 100 | 
Cc1cccnc1[C@@H]1CCC[C@H](c2cn3c(N4CCN(C)CC4=O)cccc3n2)N1 [Compound I-211] |  |  |  | ≥ 1000 | 100 to 1000 | 
Cc1cccnc1[C@@H]1CCC[C@H](c2cn3c(N4CC5CCC(C4)N5C)cccc3n2)N1C [Compound I-68] | 0.1 to 10 | 10 to 30 | 10 to 30 | 0.01 to 100 | 0.01 to 100 | 
Cc1cccnc1[C@@H]1CCC[C@H](c2nc3cccc(N4CCN(C5CC5)CC4)n3c2Br)N1C [Compound I-67] | 0.1 to 10 | 0.1 to 10 | 0.1 to 10 | 100 to 1000 | 0.01 to 100 | 
CC(C)c1cccnc1[C@@H]1CCC[C@H](c2cn3c(N4CCN(C)CC4)cccc3n2)N1C [Compound I-51] | 0.1 to 10 | 10 to 30 | 0.1 to 10 | 100 to 1000 | 0.01 to 100 | 
Cc1cccnc1[C@@H]1CCC[C@H](c2cn3c(CCc4ccccn4)cccc3n2)N1C [Compound I-7] |  |  |  | ≥ 1000 | 100 to 1000 | 
Cc1cccnc1[C@@H]1CCC[C@H](c2nc3ccccn3c2-c2ccccn2)N1 [Compound I-209] |  |  |  |  | ≥ 1000 | 
Cc1cccnc1[C@@H]1CCC[C@H](c2cn3c(-c4cccnc4)cccc3n2)N1 [Compound I-215] |  |  |  | ≥ 1000 | ≥ 1000 | 

SMILES | Papp A→B at 90 min, 10 μM (in vitro) [×10⁻⁶ cm/s] | Papp B→A at 90 min, 10 μM (in vitro) [×10⁻⁶ cm/s] | efflux ratio at 90 min, 10 μM (in vitro) | IC50 [1] [nM] | IC50 [2] [nM] | Papp at 90 min, 10 μM (in vitro) [×10⁻⁶ cm/s]
CN1CCN(c2cccc3nc([C@H]4CCC[C@@H](c5ncccc5C(F)(F)F)N4C)c(Cl)n23)CC1 [Compound I-119] |  |  |  | ≥ 1000 | 0.01 to 100 | 
CC(C)c1cccnc1[C@@H]1CCC[C@H](c2nc3cccc(N4CCN(C)CC4)n3c2CO)N1C [Compound I-74] |  |  |  | ≥ 1000 | 100 to 1000 | 
Cc1cccnc1[C@@H]1CCC[C@H](c2cn3c(-c4ccnn4C)cccc3n2)N1 [Compound I-212] |  |  |  | ≥ 1000 | ≥ 1000 | 
COCCc1ccc(OCC(O)CNC(C)C)cc1 (centres unmarked) [Metoprolol, reference compound] |  |  |  |  |  | > 10
Cc1cccnc1[C@@H]1CCC[C@H](c2cn3c(-c4ccncc4)cccc3n2)N1C [Compound I-5] |  |  |  | 100 to 1000 | 0.01 to 100 | 
Cc1cccnc1[C@@H]1CCC[C@H](c2cn3c(-c4ccncc4)cccc3n2)N1 [Compound I-214] |  |  |  | ≥ 1000 | ≥ 1000 | 
Cc1cccnc1[C@@H]1CCC[C@H](c2cn3c(-c4cncn4C)cccc3n2)N1 [Compound I-213] |  |  |  | ≥ 1000 | ≥ 1000 | 
Cc1cccnc1[C@@H]1CCC[C@H](c2nc3ccccn3c2CCC#N)N1 [Compound I-219] |  |  |  | ≥ 1000 | ≥ 1000 | 
Cc1cccnc1[C@@H]1CCC[C@H](c2cn3c(-c4ccccn4)cccc3n2)N1 [Compound I-216] |  |  |  | ≥ 1000 | ≥ 1000 | 
Cc1cccnc1[C@@H]1CCC[C@H](c2cn3ccccc3n2)N1CCCCN [Compound I-2] |  |  |  | 100 to 1000 | 100 to 1000 | 
Cc1cccnc1[C@@H]1CCC[C@H](c2cn3ccccc3n2)N1CCn1cccn1 [Compound I-10] |  |  |  | 0.01 to 100 | 0.01 to 100 | 
Cc1cccnc1[C@@H]1CCC[C@H](c2cn3ccccc3n2)N1CCc1ccccn1 [Compound I-8] |  |  |  | 0.01 to 100 | 0.01 to 100 | 
CCOCc1c([C@H]2CCC[C@@H](c3ncccc3C(C)C)N2C)nc2cccc(N3CCN(CC)CC3)n12 [Compound I-59] |  |  |  | ≥ 1000 | 100 to 1000 | 
Cc1cccnc1[C@H]1CCC[C@@H](c2nc3ccccn3c2CCCN)N1C (stereo in doubt) [Compound I-26] |  |  |  | 100 to 1000 | 0.01 to 100 | 
CC[C@H]1OC(=O)[C@H](C)[C@@H](O[C@H]2C[C@@](C)(OC)[C@@H](O)[C@H](C)O2)[C@H](C)[C@@H](O[C@@H]2O[C@H](C)C[C@H](N(C)C)[C@H]2O)[C@](C)(O)C[C@@H](C)C(=O)[C@H](C)[C@@H](O)[C@]1(C)O [Erythromycin, reference compound] |  |  | > 116 |  |  | 
